Reference: ChEMBL document CHEMBL1201862, “PubChem BioAssay data set” (2004)
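Five compound concentrations were applied to cells in 96-well plates for 48 hours; endpoints were derived by simple linear interpolation of the resulting dose-response curve. GI50: concentration for 50% inhibition of growth.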 Active and inactive are the calls of the source. Rule as the data show it: active = GI50 up to about 1.1 µM and inactive = higher.

Assays:
Experiment in all cases: growth of human tumour cells (NCI), 48 h
[1] = tested on: HOP-92
[2] = tested on: NCI/ADR-RES
[3] = tested on: 786-0
[4] = tested on: TK-10
[5] = tested on: OVCAR-8
[6] = tested on: HCC 2998
[7] = tested on: K562
[8] = tested on: OVCAR-3
[9] = tested on: RXF 393
[10] = tested on: MDA-MB-435
[11] = tested on: Malme-3M
[12] = tested on: Hs-578T
[13] = tested on: SK-MEL-5
[14] = tested on: SR
[15] = tested on: SK-OV-3
[16] = tested on: COLO 205
[17] = tested on: HCT-116
[18] = tested on: SN12C
[19] = tested on: MDA-N
[20] = tested on: SW-620
[21] = tested on: NCI-H522
[22] = tested on: MCF7
[23] = tested on: HOP-62
[24] = tested on: SNB-19
[25] = tested on: SF-539
[26] = tested on: A498
[27] = tested on: OVCAR-4
[28] = tested on: IGROV-1
[29] = tested on: NCI-H23
[30] = tested on: U-251
[31] = tested on: SF-268
[32] = tested on: A549
[33] = tested on: HT-29
[34] = tested on: UO-31
[35] = tested on: DU-145
[36] = tested on: EKVX
[37] = tested on: UACC-257
[38] = tested on: LOX IMVI
[39] = tested on: SK-MEL-2
[40] = tested on: RPMI-8226
[41] = tested on: OVCAR-5
[42] = tested on: KM12
[43] = tested on: HCT-15
[44] = tested on: SNB-75
[45] = tested on: SF-295
[46] = tested on: M14
[47] = tested on: CAKI-1
[48] = tested on: SK-MEL-28
[49] = tested on: ACHN
[50] = tested on: NCI-H460
[51] = tested on: PC-3
[52] = tested on: NCI-H226
[53] = tested on: T47D
[54] = tested on: UACC-62
[55] = tested on: HL-60
[56] = tested on: CCRF-CEM
[57] = tested on: MDA-MB-231
[58] = tested on: MOLT-4

COC(=O)CCCC1(CCCC(=O)OC)CCCCCCCCC(CCCC(=O)OC)(CCCC(=O)OC)C(=O)C1=O
GI50 [1]: 20.6 µM (inactive)
GI50 [2]: 40.2 µM (inactive)
GI50 [3]: 17.1 µM (inactive)
GI50 [4]: > 100 µM (inactive)
GI50 [5]: 50.7 µM (inactive)
GI50 [6]: > 100 µM (inactive)
GI50 [7]: 4.78 µM (inactive)
GI50 [8]: 22.9 µM (inactive)
GI50 [9]: 1.6 µM (inactive)
GI50 [10]: 86.1 µM (inactive)
GI50 [11]: 26.1 µM (inactive)
GI50 [12]: 14.8 µM (inactive)
GI50 [13]: 53.1 µM (inactive)
GI50 [14]: 20.4 µM (inactive)
GI50 [15]: > 100 µM (inactive)
GI50 [16]: > 100 µM (inactive)
GI50 [17]: 9.44 µM (inactive)
GI50 [18]: > 100 µM (inactive)
GI50 [19]: > 100 µM (inactive)
GI50 [20]: > 100 µM (inactive)
GI50 [21]: 2.24 µM (inactive)
GI50 [22]: 85.5 µM (inactive)
GI50 [23]: 38.5 µM (inactive)
GI50 [24]: > 100 µM (inactive)
GI50 [25]: 25.2 µM (inactive)
GI50 [26]: > 100 µM (inactive)
GI50 [27]: 17.3 µM (inactive)
GI50 [28]: 18.4 µM (inactive)
GI50 [29]: 18.6 µM (inactive)
GI50 [30]: 18.9 µM (inactive)
GI50 [31]: 19.2 µM (inactive)
GI50 [32]: 11.6 µM (inactive)
GI50 [33]: 43.5 µM (inactive)
GI50 [34]: 0.0502 µM (active)
GI50 [35]: > 100 µM (inactive)
GI50 [36]: > 100 µM (inactive)
GI50 [37]: > 100 µM (inactive)
GI50 [38]: 23 µM (inactive)
GI50 [39]: 28.9 µM (inactive)
GI50 [40]: < 0.01 µM (active)
GI50 [41]: > 100 µM (inactive)
GI50 [42]: 38.8 µM (inactive)
GI50 [43]: > 100 µM
GI50 [44]: 23.9 µM (inactive)
GI50 [45]: > 100 µM (inactive)
GI50 [46]: 70.1 µM (inactive)
GI50 [47]: 9.84 µM (inactive)
GI50 [48]: > 100 µM (inactive)
GI50 [49]: 40.2 µM (inactive)
GI50 [50]: 88.1 µM (inactive)
GI50 [51]: 21.2 µM (inactive)
GI50 [52]: > 100 µM (inactive)
GI50 [53]: 30.1 µM (inactive)
GI50 [54]: 13.6 µM (inactive)
GI50 [55]: 2.17 µM (inactive)

C[C@@H](C(=O)O)c1ccc(-c2ccccc2)c(F)c1 [TARENFLURBIL]
GI50 [1]: > 100 µM (inactive)
GI50 [2]: > 100 µM (inactive)
GI50 [3]: > 100 µM (inactive)
GI50 [4]: > 100 µM (inactive)
GI50 [56]: > 100 µM (inactive)
GI50 [5]: > 100 µM (inactive)
GI50 [6]: > 100 µM (inactive)
GI50 [7]: > 100 µM (inactive)
GI50 [8]: > 100 µM (inactive)
GI50 [9]: > 100 µM (inactive)
GI50 [13]: > 100 µM (inactive)
GI50 [14]: > 100 µM (inactive)
GI50 [15]: > 100 µM (inactive)
GI50 [16]: > 100 µM (inactive)
GI50 [17]: > 100 µM (inactive)
GI50 [57]: > 100 µM (inactive)
GI50 [20]: > 100 µM (inactive)
GI50 [24]: > 73.6 µM (inactive)
GI50 [26]: > 100 µM (inactive)
GI50 [27]: > 100 µM (inactive)
GI50 [28]: > 100 µM (inactive)
GI50 [29]: > 100 µM (inactive)
GI50 [30]: > 100 µM (inactive)
GI50 [33]: > 100 µM (inactive)
GI50 [34]: > 71.9 µM (inactive)
GI50 [35]: > 100 µM (inactive)
GI50 [37]: > 100 µM (inactive)
GI50 [38]: > 100 µM (inactive)
GI50 [40]: > 100 µM (inactive)
GI50 [41]: > 100 µM (inactive)
GI50 [42]: > 100 µM (inactive)
GI50 [45]: > 100 µM (inactive)
GI50 [46]: > 100 µM (inactive)
GI50 [58]: > 100 µM (inactive)
GI50 [47]: > 100 µM (inactive)
GI50 [49]: > 100 µM (inactive)
GI50 [50]: > 100 µM (inactive)
GI50 [51]: > 100 µM (inactive)
GI50 [53]: > 100 µM (inactive)
GI50 [54]: > 100 µM (inactive)

CC(C)Oc1c(O)c2c3c(oc(=O)n3C=CC2c2ccccc2F)c1OC(C)C (stereo unspecified)
GI50 [1]: 28.1 µM (inactive)
GI50 [2]: 34.4 µM (inactive)
GI50 [3]: 33.4 µM (inactive)
GI50 [4]: 40.6 µM (inactive)
GI50 [56]: 24.8 µM (inactive)
GI50 [5]: 41.8 µM (inactive)
GI50 [7]: 30.5 µM (inactive)
GI50 [8]: 44.1 µM (inactive)
GI50 [9]: 21 µM (inactive)
GI50 [10]: 26.3 µM (inactive)
GI50 [11]: 39.1 µM (inactive)
GI50 [12]: 75.7 µM (inactive)
GI50 [13]: 18.4 µM (inactive)
GI50 [14]: 16.7 µM (inactive)
GI50 [15]: > 100 µM (inactive)
GI50 [16]: 18.7 µM (inactive)
GI50 [17]: 21.7 µM (inactive)
GI50 [57]: 27.7 µM (inactive)
GI50 [18]: 38.4 µM (inactive)
GI50 [19]: 30.9 µM (inactive)
GI50 [20]: 32.9 µM (inactive)
GI50 [21]: 33.8 µM (inactive)
GI50 [22]: 28.8 µM (inactive)
GI50 [23]: 27.5 µM (inactive)
GI50 [24]: 39.3 µM (inactive)
GI50 [25]: 22.5 µM (inactive)
GI50 [26]: 38.6 µM (inactive)
GI50 [27]: 46 µM (inactive)
GI50 [28]: 44.8 µM (inactive)
GI50 [29]: 30.5 µM (inactive)
GI50 [30]: 35.9 µM (inactive)
GI50 [31]: 64.9 µM (inactive)
GI50 [32]: 26.8 µM (inactive)
GI50 [33]: 21.7 µM (inactive)
GI50 [34]: 24.4 µM (inactive)
GI50 [35]: 63.8 µM (inactive)
GI50 [36]: 41.1 µM (inactive)
GI50 [37]: 28.6 µM (inactive)
GI50 [38]: 17.5 µM (inactive)
GI50 [39]: 15.5 µM (inactive)
GI50 [40]: 17.3 µM (inactive)
GI50 [41]: 20 µM (inactive)
GI50 [42]: 29.1 µM (inactive)
GI50 [43]: 33 µM
GI50 [44]: 20.7 µM (inactive)
GI50 [45]: 25.6 µM (inactive)
GI50 [46]: 24.8 µM (inactive)
GI50 [58]: 18.7 µM (inactive)
GI50 [47]: 38.5 µM (inactive)
GI50 [48]: 53.8 µM (inactive)
GI50 [49]: 35.7 µM (inactive)
GI50 [50]: 25 µM (inactive)
GI50 [51]: 13.5 µM (inactive)
GI50 [52]: 32.6 µM (inactive)
GI50 [54]: 21.1 µM (inactive)
GI50 [55]: 20.1 µM (inactive)
